Measured values: article PMC5766581, “NF-κB inducing kinase is a therapeutic target for systemic lupus erythematosus” (Nature Communications, 2018)

Key:
Experiment in all cases: SelectScreen kinase panel
Format in all cases: biochemical
CaMKI = molecular target: T1, CaMKI (Homo sapiens, UniProt Q14012)
T1 construct: purchased Invitrogen / ThermoFisher SelectScreen
How it was run: (§1)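 Human kinases were profiled in Invitrogen's SelectScreen broad panel. Depending on the enzyme, inhibition was assessed by peptide phosphorylation (Z′-LYTE), by ADP formation (Adapta), or by displacement at the ATP site (LanthaScreen), and then reported as mean percent inhibition.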

Abl = molecular target: T2, Abl (Homo sapiens, UniProt P00519)
T2 construct: purchased Invitrogen / ThermoFisher SelectScreen
How it was run: as §1

Flt1 = molecular target: T3, Flt1 (Homo sapiens, UniProt P17948)
T3 construct: purchased Invitrogen / ThermoFisher SelectScreen
How it was run: as §1

ZAP-70 = molecular target: T4, ZAP-70 (Homo sapiens, UniProt P43403)
T4 construct: purchased Invitrogen / ThermoFisher SelectScreen
How it was run: as §1

CK1_epsilon1 = molecular target: T5, CK1_epsilon1 (Homo sapiens, UniProt P49674)
T5 construct: purchased Invitrogen / ThermoFisher SelectScreen
How it was run: as §1

PKA = molecular target: T6, PKA (Homo sapiens, UniProt P17612)
T6 construct: purchased Invitrogen / ThermoFisher SelectScreen
How it was run: as §1

TAO1 = molecular target: T7, TAO1 (Homo sapiens, UniProt Q9UL54)
T7 construct: purchased Invitrogen / ThermoFisher SelectScreen
How it was run: as §1

BTK = molecular target: T8, BTK (Homo sapiens, UniProt Q06187)
T8 construct: purchased Invitrogen / ThermoFisher SelectScreen
How it was run: as §1

EGFR (T790M,L858R) = molecular target: T9, EGFR (T790M,L858R) (Homo sapiens, UniProt P00533, L858R/T790M)
T9 construct: purchased Invitrogen / ThermoFisher SelectScreen
How it was run: as §1

CLK2 = molecular target: T10, CLK2 (Homo sapiens, UniProt P49760)
T10 construct: purchased Invitrogen / ThermoFisher SelectScreen
How it was run: as §1

PLK3 = molecular target: T11, PLK3 (Homo sapiens, UniProt Q9H4B4)
T11 construct: purchased Invitrogen / ThermoFisher SelectScreen
How it was run: as §1

CK1_delta = molecular target: T12, CK1_delta (Homo sapiens, UniProt P48730)
T12 construct: purchased Invitrogen / ThermoFisher SelectScreen
How it was run: as §1

FGFR1 = molecular target: T13, FGFR1 (Homo sapiens, UniProt P11362)
T13 construct: purchased Invitrogen / ThermoFisher SelectScreen
How it was run: as §1

PKC_beta1 = molecular target: T14, PKC_beta1 (Homo sapiens, UniProt P05771)
T14 construct: purchased Invitrogen / ThermoFisher SelectScreen
How it was run: as §1

ZIPK = molecular target: T15, ZIPK (Homo sapiens, UniProt O43293)
T15 construct: purchased Invitrogen / ThermoFisher SelectScreen
How it was run: as §1

CDK9/cyclinT1 = molecular target: T16, CDK9/cyclinT1 (Homo sapiens, UniProt P50750)
T16 construct: purchased Invitrogen / ThermoFisher SelectScreen
How it was run: as §1

IKK_beta = molecular target: T17, IKK_beta (Homo sapiens, UniProt O14920)
T17 construct: purchased Invitrogen / ThermoFisher SelectScreen
How it was run: as §1

MLK1 = molecular target: T18, MLK1 (Homo sapiens, UniProt P80192)
T18 construct: purchased Invitrogen / ThermoFisher SelectScreen
How it was run: as §1

IKK_epsilon = molecular target: T19, IKK_epsilon (Homo sapiens, UniProt Q14164)
T19 construct: purchased Invitrogen / ThermoFisher SelectScreen
How it was run: as §1

NEK4 = molecular target: T20, NEK4 (Homo sapiens, UniProt P51957)
T20 construct: purchased Invitrogen / ThermoFisher SelectScreen
How it was run: as §1

CSF1R = molecular target: T21, CSF1R (Homo sapiens, UniProt P07333)
T21 construct: purchased Invitrogen / ThermoFisher SelectScreen
How it was run: as §1

ROCK1 = molecular target: T22, ROCK1 (Homo sapiens, UniProt Q13464)
T22 construct: purchased Invitrogen / ThermoFisher SelectScreen
How it was run: as §1

AKT1 = molecular target: T23, AKT1 (Homo sapiens, UniProt P31749)
T23 construct: purchased Invitrogen / ThermoFisher SelectScreen
How it was run: as §1

Tie2 = molecular target: T24, Tie2 (Homo sapiens, UniProt Q02763)
T24 construct: purchased Invitrogen / ThermoFisher SelectScreen
How it was run: as §1

InsR = molecular target: T25, InsR (Homo sapiens, UniProt P06213)
T25 construct: purchased Invitrogen / ThermoFisher SelectScreen
How it was run: as §1

DCAMKL2 = molecular target: T26, DCAMKL2 (Homo sapiens, UniProt Q8N568)
T26 construct: purchased Invitrogen / ThermoFisher SelectScreen
How it was run: as §1

FGFR3 = molecular target: T27, FGFR3 (Homo sapiens, UniProt P22607)
T27 construct: purchased Invitrogen / ThermoFisher SelectScreen
How it was run: as §1

AKT2 = molecular target: T28, AKT2 (Homo sapiens, UniProt P31751)
T28 construct: purchased Invitrogen / ThermoFisher SelectScreen
How it was run: as §1

PKD1 = molecular target: T29, PKD1 (Homo sapiens, UniProt Q15139); conditions: NIK SMI1 1 µM; ATP Km app
T29 construct: purchased Invitrogen / ThermoFisher SelectScreen
How it was run: as §1

SGK2 = molecular target: T30, SGK2 (Homo sapiens, UniProt Q9HBY8)
T30 construct: purchased Invitrogen / ThermoFisher SelectScreen
How it was run: as §1

Brk = molecular target: T31, Brk (Homo sapiens, UniProt Q13882)
T31 construct: purchased Invitrogen / ThermoFisher SelectScreen
How it was run: as §1

TrkB = molecular target: T32, TrkB (Homo sapiens, UniProt Q16620)
T32 construct: purchased Invitrogen / ThermoFisher SelectScreen
How it was run: as §1

T29 sequence (Q15139 whole entry): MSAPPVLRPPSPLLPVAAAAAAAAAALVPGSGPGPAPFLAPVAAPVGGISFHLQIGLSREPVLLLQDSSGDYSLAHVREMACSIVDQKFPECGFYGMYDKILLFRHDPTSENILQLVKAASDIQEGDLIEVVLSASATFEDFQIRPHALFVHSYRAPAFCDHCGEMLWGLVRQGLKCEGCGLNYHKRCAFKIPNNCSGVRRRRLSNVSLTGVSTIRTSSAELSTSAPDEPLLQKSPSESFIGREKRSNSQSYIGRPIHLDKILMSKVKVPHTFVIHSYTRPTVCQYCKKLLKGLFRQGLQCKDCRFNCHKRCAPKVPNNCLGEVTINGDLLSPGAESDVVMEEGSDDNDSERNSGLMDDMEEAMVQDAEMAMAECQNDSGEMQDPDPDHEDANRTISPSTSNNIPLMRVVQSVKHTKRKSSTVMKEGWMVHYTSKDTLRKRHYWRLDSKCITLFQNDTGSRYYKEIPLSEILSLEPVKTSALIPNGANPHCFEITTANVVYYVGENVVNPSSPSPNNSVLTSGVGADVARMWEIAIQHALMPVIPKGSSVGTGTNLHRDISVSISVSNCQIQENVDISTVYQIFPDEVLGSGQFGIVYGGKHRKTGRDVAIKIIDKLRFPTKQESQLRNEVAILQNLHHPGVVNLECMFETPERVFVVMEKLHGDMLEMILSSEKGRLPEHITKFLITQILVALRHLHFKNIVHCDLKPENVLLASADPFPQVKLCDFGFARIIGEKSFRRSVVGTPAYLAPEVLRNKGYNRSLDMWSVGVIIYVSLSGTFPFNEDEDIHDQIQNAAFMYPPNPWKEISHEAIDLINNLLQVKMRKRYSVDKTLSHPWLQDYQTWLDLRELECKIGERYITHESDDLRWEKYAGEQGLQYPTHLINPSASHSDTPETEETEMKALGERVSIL
T24 sequence (Q02763 23-1124): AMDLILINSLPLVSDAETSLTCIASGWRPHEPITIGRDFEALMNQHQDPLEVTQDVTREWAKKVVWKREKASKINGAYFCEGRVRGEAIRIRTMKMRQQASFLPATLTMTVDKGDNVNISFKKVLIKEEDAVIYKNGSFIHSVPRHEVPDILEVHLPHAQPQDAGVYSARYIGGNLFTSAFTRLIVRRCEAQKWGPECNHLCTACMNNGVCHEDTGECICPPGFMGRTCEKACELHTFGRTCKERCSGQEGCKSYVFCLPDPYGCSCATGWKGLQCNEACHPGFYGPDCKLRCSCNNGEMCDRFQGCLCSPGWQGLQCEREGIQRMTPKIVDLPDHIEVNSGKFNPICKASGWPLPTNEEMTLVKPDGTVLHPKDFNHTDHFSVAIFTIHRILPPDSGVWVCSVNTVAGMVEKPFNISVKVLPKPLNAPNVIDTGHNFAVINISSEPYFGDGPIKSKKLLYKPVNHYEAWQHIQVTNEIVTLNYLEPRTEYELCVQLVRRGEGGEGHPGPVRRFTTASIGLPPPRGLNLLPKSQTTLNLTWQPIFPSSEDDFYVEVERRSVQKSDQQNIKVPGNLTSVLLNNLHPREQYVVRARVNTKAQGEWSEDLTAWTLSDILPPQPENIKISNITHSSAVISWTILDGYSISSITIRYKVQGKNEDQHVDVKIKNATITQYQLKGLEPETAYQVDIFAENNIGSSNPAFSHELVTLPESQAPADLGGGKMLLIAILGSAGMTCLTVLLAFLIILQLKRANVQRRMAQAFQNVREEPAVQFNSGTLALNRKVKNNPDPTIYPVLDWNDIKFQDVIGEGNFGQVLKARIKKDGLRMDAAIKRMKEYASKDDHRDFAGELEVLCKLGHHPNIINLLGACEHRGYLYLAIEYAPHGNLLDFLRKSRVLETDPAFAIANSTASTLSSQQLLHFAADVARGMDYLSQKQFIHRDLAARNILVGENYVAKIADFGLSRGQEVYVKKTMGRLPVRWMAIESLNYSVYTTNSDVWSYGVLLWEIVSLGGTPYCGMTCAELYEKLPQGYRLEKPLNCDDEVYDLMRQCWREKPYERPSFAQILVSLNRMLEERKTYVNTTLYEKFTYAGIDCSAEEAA
T11 sequence (Q9H4B4 whole entry): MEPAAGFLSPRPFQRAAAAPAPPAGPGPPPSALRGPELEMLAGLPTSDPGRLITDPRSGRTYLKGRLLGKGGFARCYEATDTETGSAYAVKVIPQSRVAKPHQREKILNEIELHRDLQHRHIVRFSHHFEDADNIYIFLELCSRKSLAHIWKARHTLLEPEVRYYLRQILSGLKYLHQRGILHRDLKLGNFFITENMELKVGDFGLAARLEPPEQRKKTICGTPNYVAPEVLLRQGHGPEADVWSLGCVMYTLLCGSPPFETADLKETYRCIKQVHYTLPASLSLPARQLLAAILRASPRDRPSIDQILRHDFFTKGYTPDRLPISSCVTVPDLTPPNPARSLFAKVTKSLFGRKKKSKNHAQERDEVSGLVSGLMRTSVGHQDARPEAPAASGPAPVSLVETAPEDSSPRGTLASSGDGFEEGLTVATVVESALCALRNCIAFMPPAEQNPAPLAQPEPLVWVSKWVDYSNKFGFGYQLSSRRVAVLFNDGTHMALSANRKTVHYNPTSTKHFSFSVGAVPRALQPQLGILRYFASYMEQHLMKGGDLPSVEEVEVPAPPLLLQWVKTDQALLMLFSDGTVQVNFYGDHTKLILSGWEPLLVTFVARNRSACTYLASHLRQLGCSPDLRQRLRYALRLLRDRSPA
T12 sequence (P48730 whole entry): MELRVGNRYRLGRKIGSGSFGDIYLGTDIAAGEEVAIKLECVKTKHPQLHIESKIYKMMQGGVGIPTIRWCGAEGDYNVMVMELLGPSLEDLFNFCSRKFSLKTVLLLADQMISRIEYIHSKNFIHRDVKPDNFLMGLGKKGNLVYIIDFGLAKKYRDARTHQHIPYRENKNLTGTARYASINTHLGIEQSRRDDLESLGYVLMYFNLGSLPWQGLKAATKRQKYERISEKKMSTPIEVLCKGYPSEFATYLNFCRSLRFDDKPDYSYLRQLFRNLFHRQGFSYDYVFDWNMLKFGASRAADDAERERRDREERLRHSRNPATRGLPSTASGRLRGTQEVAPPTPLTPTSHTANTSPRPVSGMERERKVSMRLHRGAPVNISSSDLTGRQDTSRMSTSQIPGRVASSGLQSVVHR
T30 sequence (Q9HBY8 whole entry): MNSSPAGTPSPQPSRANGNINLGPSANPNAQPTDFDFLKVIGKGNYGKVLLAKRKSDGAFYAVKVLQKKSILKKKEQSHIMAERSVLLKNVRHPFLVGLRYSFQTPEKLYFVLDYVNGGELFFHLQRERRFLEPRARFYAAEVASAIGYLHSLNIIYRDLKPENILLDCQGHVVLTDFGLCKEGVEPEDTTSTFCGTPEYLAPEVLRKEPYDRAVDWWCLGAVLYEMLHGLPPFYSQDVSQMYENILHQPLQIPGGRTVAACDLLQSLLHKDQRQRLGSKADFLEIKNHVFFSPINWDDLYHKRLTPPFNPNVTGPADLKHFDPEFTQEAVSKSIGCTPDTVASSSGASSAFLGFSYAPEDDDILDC
T25 sequence (P06213 28-1382): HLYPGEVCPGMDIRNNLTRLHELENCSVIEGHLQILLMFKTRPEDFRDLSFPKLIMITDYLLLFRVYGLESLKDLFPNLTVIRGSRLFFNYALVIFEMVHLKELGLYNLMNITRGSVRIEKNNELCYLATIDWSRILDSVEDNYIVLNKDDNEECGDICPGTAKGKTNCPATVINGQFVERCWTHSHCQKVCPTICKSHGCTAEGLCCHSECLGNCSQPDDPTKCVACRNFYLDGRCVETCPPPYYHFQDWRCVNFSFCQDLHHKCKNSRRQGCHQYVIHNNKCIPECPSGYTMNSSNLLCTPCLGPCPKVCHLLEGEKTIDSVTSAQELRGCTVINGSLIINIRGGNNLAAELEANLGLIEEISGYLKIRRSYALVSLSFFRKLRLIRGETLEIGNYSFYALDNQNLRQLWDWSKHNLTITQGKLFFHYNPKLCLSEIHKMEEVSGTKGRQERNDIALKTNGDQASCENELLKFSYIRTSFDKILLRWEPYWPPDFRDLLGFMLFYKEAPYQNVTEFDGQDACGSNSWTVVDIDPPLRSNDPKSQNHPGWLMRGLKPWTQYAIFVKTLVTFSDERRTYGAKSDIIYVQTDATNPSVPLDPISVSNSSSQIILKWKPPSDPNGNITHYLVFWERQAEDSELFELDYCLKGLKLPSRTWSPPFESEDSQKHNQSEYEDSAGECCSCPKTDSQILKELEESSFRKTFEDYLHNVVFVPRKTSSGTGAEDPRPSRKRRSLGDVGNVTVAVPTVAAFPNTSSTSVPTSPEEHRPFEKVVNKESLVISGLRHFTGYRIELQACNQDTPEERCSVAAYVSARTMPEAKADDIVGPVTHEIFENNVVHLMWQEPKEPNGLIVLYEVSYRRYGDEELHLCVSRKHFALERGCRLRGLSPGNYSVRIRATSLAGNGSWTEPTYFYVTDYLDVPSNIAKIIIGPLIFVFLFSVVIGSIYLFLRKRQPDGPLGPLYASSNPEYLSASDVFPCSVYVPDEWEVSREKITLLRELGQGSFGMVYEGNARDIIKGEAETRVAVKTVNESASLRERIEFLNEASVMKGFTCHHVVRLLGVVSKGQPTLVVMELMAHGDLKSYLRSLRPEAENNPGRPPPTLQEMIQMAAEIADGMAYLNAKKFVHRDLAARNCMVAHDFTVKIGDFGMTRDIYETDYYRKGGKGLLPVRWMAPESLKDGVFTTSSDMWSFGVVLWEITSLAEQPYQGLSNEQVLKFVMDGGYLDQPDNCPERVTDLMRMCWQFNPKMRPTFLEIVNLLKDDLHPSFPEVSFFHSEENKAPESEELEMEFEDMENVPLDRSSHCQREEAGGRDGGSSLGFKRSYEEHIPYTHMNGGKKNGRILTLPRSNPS

## COc1cc(C(N)=O)nc(-c2cccc(C#C[C@]3(O)CCN(C)C3=O)c2)c1 [NIK SMI1]
CaMKI
  inhibition at 1 µM: 18.3%
Abl
  inhibition at 1 µM: 9.5%
Flt1
  inhibition at 1 µM: 7%
ZAP-70
  inhibition at 1 µM: 17%
CK1_epsilon1
  inhibition at 1 µM: 6.5%
PKA
  inhibition at 1 µM: -3%
TAO1
  inhibition at 1 µM: 17%
BTK
  inhibition at 1 µM: -3%
EGFR (T790M,L858R)
  inhibition at 1 µM: 9.5%
CLK2
  inhibition at 1 µM: 25%
PLK3
  inhibition at 1 µM: 9%
CK1_delta
  inhibition at 1 µM: -4.5%
FGFR1
  inhibition at 1 µM: -5.5%
PKC_beta1
  inhibition at 1 µM: 1.5%
ZIPK
  inhibition at 1 µM: -5.5%
CDK9/cyclinT1
  inhibition at 1 µM: 15.3%
IKK_beta
  inhibition at 1 µM: 4.5%
MLK1
  inhibition at 1 µM: -1%
IKK_epsilon
  inhibition at 1 µM: 19%
NEK4
  inhibition at 1 µM: 11%
CSF1R
  inhibition at 1 µM: -11%
ROCK1
  inhibition at 1 µM: 9.5%
AKT1
  inhibition at 1 µM: 28.5%
Tie2
  inhibition at 1 µM: 6%
InsR
  inhibition at 1 µM: 2%
DCAMKL2
  inhibition at 1 µM: 6.5%
FGFR3
  inhibition at 1 µM: -3.5%
AKT2
  inhibition at 1 µM: 13%
PKD1
  % Inhibition: 79%
  inhibition at 1 µM: > 75%
SGK2
  inhibition at 1 µM: 9.5%
Brk
  inhibition at 1 µM: 7%
TrkB
  inhibition at 1 µM: -3.5%
